Measurements as given in patent US20240139185A1, “COMPOUNDS THAT PARTICIPATE IN COOPERATIVE BINDING AND USES THEREOF” (Revolution Medicines, Inc., priority 2018, published 2024).

What was measured:
Format in all cases: biochemical
BRAF-GTP-KRASWT complex = target: T1, BRAF-GTP-KRASWT complex (Homo sapiens, UniProt P01116+P62937); test: KRAS-BRAF complex disruption TR-FRET with wild-type KRAS (G12C specificity); conditions: with CYPA
T1 construct: substitute His6-KRas WT-GTP (1-169) for His6-KRas G12C-GTP (1-169); 500 nM of tagless CypA (1-165)
Protocol: (§1) In this example, TR-FRET was used to measure the compound-facilitated disruption of a KRAS-BRAF complex. A mixture of tagless Cyclophilin A, His6-KRAS G12C-GMP-PNP, and GST-BRAF RAS binding domain was added to a 384-well assay plate containing compounds of the invention and incubated for 3 hours. A mixture of Anti-His Eu-W1024 and anti-GST allophycocyanin was then added and the reaction was incubated for an additional 1.5 hours. TR-FRET signal was read on an EnVision microplate reader (Perkin Elmer, Ex 320 nm, Em 665/615 nm). Compounds that facilitate disruption of a KRAS_BRAF complex were identified as those eliciting a decrease in the TR-FRET ratio relative to DMSO control wells. To determine the presenter-dependence of the compound-mediated KRAS-BRAF complex disruption, Cyclophilin A was left out of the initial incubation (see Table 5). To determine G12C specificity of the compound-mediated KRAS-BRAF complex disruption, wild-type KRAS was used instead of G12C KRAS (see Table 5).
(§2) Reagents and Instrument • Tagless CYPA; 519 μM in PBS buffer, pH 7.4 • GST BRAF; 110 μM in PBS buffer, pH 7.4 • His6-KRASG12C-GMP-PNP; 50 μM in PBS buffer, pH 7.4 • His6-KRASWT-GMP-PNP; 40 μM in PBS buffer, pH 7.4 • Anti-His Eu-W1024 (LANCE® Eu-W1024; Perkin Elmer) • Anti-GST allophycocyanin (Anti-GST IgG conjugated to SureLight®-Allophycocyanin; Perkin Elmer; Product Number AD0059G) • Test compounds, 10 mM in 100% DMSO • EnVision (Perkin Elmer) • Combi MultiDrop liquid dispenser with 8-channel small volume cassette • 384-well ProxiPlate (black)
(§3) Experimental Protocol • 1. Use Mosquito to dispense 100 nL/well of compounds (varying concentration in […]) into 384-well black ProxiPlate to make assay-ready-plate (ARP). • 2. Make assay buffer containing 25 mM Hepes pH 7.3, 100 mM NaCl, 5 mM MgCl2, 0.05% BSA, and 0.002% Tween-20. • 3. Make PRE-MIX A: delivers final concentrations of 50 nM of His6-KRas G12C-GTP (1-169) and 500 nM of tagless CypA (1-165) in assay buffer. • a. […] Read on EnVision (Ex: 320 nm; Em1: 615 nm; Em2: 665 nm). • 8. […]

[1] = target: T2, BRAF-GTP-KRAS-G12C complex (Homo sapiens, UniProt P01116, G12C); test: KRAS-BRAF complex disruption TR-FRET without CYPA (presenter dependence)
T2 construct: 50 nM of His6-KRas G12C-GTP (1-169)
Protocol: as §1, §2, §3

KRAS-G12C = target: T3, KRAS-G12C (Homo sapiens, UniProt P01116+P62937, G12C); test: Percentage of crosslinking to KRAS-G12C in the presence of BME and CYPA (TOF-MS); conditions: 5 min incubation; compound 2 μM, CypA 5 μM, G12C-GMPNP 0.5 μM, BME
T3 construct: CypA 1-165 (final concentration 5 μM)
Protocol: • 1. 10×Incubation buffer: 125 mM HEPES pH 7.4, 750 mM NaCl, 10 mM MgCl2 • 2. 50 μM Protein A stock (CypA) in incubation buffer • 3. 5 μM Protein B (G12C-GMPNP) stock in incubation buffer • 4. 20 μM compound stock in 1×Incubation buffer with 10% DMSO • 5. 25 mM BME stock solution (prepared by diluting the BME stock in Milli Q water)
CypA 1-165 (final concentration 5 μM), test compound (final concentration 2 μM) and G12C-GMPNP (final concentration 0.5 μM) were incubated in the incubation buffer ([…]) for the requisite amount of time at room temperature. The samples were quenched with formic acid, final concentration 0.5%. 10 μL aliquots were injected to TOF-MS.
Sequence of Addition for a Final Incubation Volume of 50 μL • 1. 5 μL 10×incubation buffer • 2. 28 ul H2O • 3. 2 μL from 25 mM BME stock • 4. 5 μL CypA at 50 uM • 5. 5 μL from 5 μM G12C-GMPNP • 6. 5 μL compound from 20 μM compound stock
LC-MS is performed on an Agilent 6230 TOF-LC mass spectrometer equipped with an electrospray probe operated in positive ionization mode. 10 μL samples are injected on a Sepax Bio-C4, 300 Å, 2.1×100 mm column. The mobile phase is 0.1% (vol/vol) formic acid and 0.1% 1 mM ammonium formate in 95% water, 4.8% acetonitrile (A) and 0.1% (vol/vol) formic acid and 0.1% 1 mM ammonium formate in 95% acetonitrile and 4.8% water (B). The separation is performed by a 9 min total gradient consisting of 5 min linear gradient from 25% to 50% B, and a wash at 100% B for 1.25 min, all at a flow rate of 0.6 mL/min (see attached timetable below). Mass spectrometer source conditions were capillary voltage, 4,000 V; cone voltage, 120 V; source temperature, 275° C.; scan range, 100-2,000 a.m.u. with a cycle time of 1 s.
The observed mass is generated by averaging the major peak in the total ion current (TIC). The charge-state series of the species are deconvoluted using Agilent MassHunter Bioconfirm using maximum entropy setting (range is set to 17000-23000 Da). […]

Row | IC50 (BRAF-GTP-KRASWT complex) [µM] | IC50 [1] [µM] | % Crosslinking with KRAS-G12C-GTP in presence of CYPA, 5 min incubation (KRAS-G12C) [%] | Compound
1 | > 30 | > 30 | 83 | CC1COC(=O)C2CCCN(N2)C(=O)C(NC(=O)C(C(C)C)N(C)C(=O)C2CN(C(=O)CCl)C2)Cc2cc(O)cc(c2)-c2ccc3c(S(C)(=O)=O)cn(c3c2)C1 (single isomer, unassigned) [Compound 110]
2 | > 30 | > 30 | 27 | CC1COC(=O)C2CCCN(N2)C(=O)C(NC(=O)C(C(C)C)N(C)C(=O)C2CN(C(=O)CCl)C2)Cc2cc(O)cc(c2)-c2ccc3c(c2)c(cn3CC2COC2)C1 (mixture of isomers) [Compound 226]
